From BindingDB's records for doi:10.1016/j.bmc.2015.03.047 (Shanghai Institute of Technology, 2015)
pIC50: −log10 of the molar value.

Target: Rho-associated protein kinase 2 (Homo sapiens, UniProt O75116)
Experiment: Inhibition of ROCK2 (unknown origin) using STK2 substrate after 4 hrs by HTRF mode

Chain of Rho-associated protein kinase 2 (O75116 whole entry): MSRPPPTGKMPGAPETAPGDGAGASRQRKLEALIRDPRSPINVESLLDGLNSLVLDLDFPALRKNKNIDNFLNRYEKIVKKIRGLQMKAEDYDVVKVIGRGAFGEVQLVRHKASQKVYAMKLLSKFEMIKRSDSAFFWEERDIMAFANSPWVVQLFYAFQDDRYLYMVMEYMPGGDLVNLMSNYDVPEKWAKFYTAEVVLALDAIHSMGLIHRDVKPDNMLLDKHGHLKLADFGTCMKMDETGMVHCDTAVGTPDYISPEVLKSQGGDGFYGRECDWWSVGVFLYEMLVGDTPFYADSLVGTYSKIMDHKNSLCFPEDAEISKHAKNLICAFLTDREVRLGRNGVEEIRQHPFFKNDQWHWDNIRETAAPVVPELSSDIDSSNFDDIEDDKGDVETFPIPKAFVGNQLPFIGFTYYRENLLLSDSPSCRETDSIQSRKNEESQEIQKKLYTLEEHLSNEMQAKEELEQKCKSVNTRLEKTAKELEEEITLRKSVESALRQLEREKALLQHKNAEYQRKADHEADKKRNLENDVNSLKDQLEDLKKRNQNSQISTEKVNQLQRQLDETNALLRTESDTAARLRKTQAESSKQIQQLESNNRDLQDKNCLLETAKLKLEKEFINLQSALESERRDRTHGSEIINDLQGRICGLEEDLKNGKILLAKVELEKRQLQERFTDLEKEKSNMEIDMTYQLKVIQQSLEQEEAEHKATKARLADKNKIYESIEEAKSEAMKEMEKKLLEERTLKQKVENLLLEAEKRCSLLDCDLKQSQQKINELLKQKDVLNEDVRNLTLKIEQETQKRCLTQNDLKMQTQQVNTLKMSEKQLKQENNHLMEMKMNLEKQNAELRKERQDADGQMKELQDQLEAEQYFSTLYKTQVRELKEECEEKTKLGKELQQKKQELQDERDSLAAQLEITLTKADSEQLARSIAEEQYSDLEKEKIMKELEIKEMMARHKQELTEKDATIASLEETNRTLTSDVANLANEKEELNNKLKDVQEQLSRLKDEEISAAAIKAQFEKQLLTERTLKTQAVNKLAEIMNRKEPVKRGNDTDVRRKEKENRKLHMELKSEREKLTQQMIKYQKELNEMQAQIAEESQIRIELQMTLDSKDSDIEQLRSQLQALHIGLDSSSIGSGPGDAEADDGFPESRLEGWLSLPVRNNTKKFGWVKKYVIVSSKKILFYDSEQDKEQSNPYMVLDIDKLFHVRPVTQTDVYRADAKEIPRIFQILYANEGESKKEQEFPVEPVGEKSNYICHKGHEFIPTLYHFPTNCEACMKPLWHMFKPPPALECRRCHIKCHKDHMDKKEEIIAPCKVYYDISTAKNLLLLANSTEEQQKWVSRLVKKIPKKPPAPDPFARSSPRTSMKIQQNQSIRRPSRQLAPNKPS

## CNC(=O)N(CCO)c1ccc(-c2cn[nH]c2)cc1
  pIC50: 6.12
